Patent publication US7994326B2 (Northwestern University, priority 2003, dated 2011)
Read-outs that look alike come from different tables or passages of the source.

Assays:
Format in all cases: biochemical
rat nNOS = molecular target: T1, rat nNOS (Rattus norvegicus, UniProt P29476); assay: NOS enzyme inhibitory assay (hemoglobin capture), nNOS; settings: for IC50: rat nNOS, 10 μM L-arginine
T1 construct: made in house; host or cells: E. coli (plasmid pCWnNOS)
How it was run: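 Recombinant rat nNOS expressed in E. coli and purified by calmodulin-Sepharose and 2′,5′-ADP-Sepharose chromatography. NO production followed by hemoglobin capture; inhibition expressed as Ki, selectivity as ratio of Ki values.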

bovine eNOS = molecular target: T2, bovine eNOS (Bos taurus, UniProt P29473); assay: NOS enzyme inhibitory assay (hemoglobin capture), eNOS; settings: for IC50: bovine eNOS, 10 μM L-arginine, * = no inhibition observed up to the concentration listed
T2 construct: made in house; host or cells: E. coli (plasmid Bov-eNOSpCW)

murine iNOS = molecular target: T3, murine iNOS (Mus musculus, UniProt P29477); assay: NOS enzyme inhibitory assay (hemoglobin capture), iNOS; settings: for IC50: murine iNOS, 10 μM L-arginine
T3 construct: made in house; host or cells: E. coli (plasmid pCWiNOS)
How it was run: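 Recombinant murine iNOS, overexpressed in E. coli from plasmid pCWiNOS (induced with 1 mM IPTG) and purified on a 2′,5′-ADP-Sepharose 4B column with elution by 10 mM 2′(3′)-AMP, 10 μM BH4 and 0.3 M NaCl, was used to test inhibitors. Nitric oxide production was followed with the hemoglobin capture assay, and IC50 values were determined.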

[1] = Table 1b, ratio of Ki values eNOS/nNOS
[2] = Table 1b, ratio of Ki values iNOS/nNOS
[3] = Table 1a, apparent Ki calculated from IC50, Km […], read-out: calc. Ki nNOS
[4] = Table 1a, apparent Ki calculated from IC50, Km 1.7 μM, read-out: calc. Ki eNOS
[5] = Table 1a, apparent Ki calculated from IC50, Km […], read-out: calc. Ki iNOS

Row | SMILES | Selectivity n/e (rat nNOS; [1]) | Selectivity n/i (rat nNOS; [2]) | Ki (rat nNOS; Table 1b, read-out: Ki nNOS) [µM] | Ki (bovine eNOS; Table 1b, read-out: Ki eNOS) [µM] | Ki (murine iNOS; Table 1b, read-out: Ki iNOS) [µM] | Selectivity n/e (rat nNOS; Table 1a, Ki(eNOS)/Ki(nNOS)) | Selectivity n/i (rat nNOS; Table 1a, Ki(iNOS)/Ki(nNOS)) | Ki (rat nNOS; [3]) [µM] | IC50 (rat nNOS; Table 1a) [µM] | Ki (bovine eNOS; [4]) [µM] | IC50 (bovine eNOS; Table 1a) [µM] | Ki (murine iNOS; [5]) [µM] | IC50 (murine iNOS; Table 1a) [µM]
1 | Cc1cc(N)nc(CC2CNCC2NCCNCc2ccc(Cl)c(Cl)c2)c1.Cl.Cl.Cl.Cl (racemic) [Compound P-65] | 153 | 57.4 | 0.414 | 63.2 | 23.8 | – | – | – | – | – | – | – | –
2 | Cc1cc(N)nc(C[C@H]2CNC[C@@H]2NCCNCc2ccc(Cl)cc2Cl)c1.Cl.Cl.Cl.Cl (racemic) [Compound P-66] | 158 | 91.6 | 0.483 | 76.1 | 44.2 | – | – | – | – | – | – | – | –
3 | Cc1cc(N)nc(CC2CNCC2NCC(C)NCc2ccc(Cl)cc2)c1.Cl.Cl.Cl.Cl (racemic) [Compound P-68] | 28 | 34.7 | 0.589 | 16.5 | 20.5 | – | – | – | – | – | – | – | –
4 | Cc1cc(N)nc(CC2CNCC2NCCNCCc2ccc(F)cc2)c1.Cl.Cl.Cl.Cl (racemic) [Compound P-70] | 656.2 | 170.3 | 0.027 | 17.7 | 4.6 | – | – | – | – | – | – | – | –
5 | Cc1cc(N)nc(C[C@H]2CNC[C@@H]2NCCNCCc2ccc(F)cc2)c1.Cl.Cl.Cl.Cl (racemic) [Compound P-72] | 370.5 | 189.9 | 0.119 | 44.1 | 22.6 | – | – | – | – | – | – | – | –
6 | Cc1cc(N)nc(CC2CNCC2N(C)CCN(C)CCc2cccc(F)c2)c1.Cl.Cl.Cl.Cl (racemic) [Compound P-74] | 40.27 | 46.7 | 1.21 | 48.9 | 56.6 | – | – | – | – | – | – | – | –
7 | Cc1cc(N)nc(C[C@H]2CNC[C@H]2N(C)CCNCCc2cccc(F)c2)c1.Cl.Cl.Cl.Cl (racemic) [Compound P-75] | 283.5 | 117.3 | 0.326 | 92.4 | 38.2 | – | – | – | – | – | – | – | –
8 | Cc1cc(N)nc(C[C@H]2CNC[C@H]2NC(=O)CNCCc2cccc(F)c2)c1.Cl.Cl.Cl (racemic) [Compound P-77, (±)-N-{cis-4-[(6-amino-4-methylpyridin-2-yl)methyl]pyrrolidin-3-yl}-2-(3-fluorophenethylamino)acetamide trihydrochloride] | 500 | 26.4 | 0.053 | 26 | 1.4 | – | – | – | – | – | – | – | –
9 | Cc1cc(N)nc(C[C@@H]2CNC[C@@H]2NCCOCCc2cccc(F)c2)c1 (racemic) [Compound P-78, cis-6-{{(±)-4-[2-(3-fluorophenethoxy)ethylamino]pyrrolidin-3-yl}methyl}-4-methylpyridin-2-amine] | 50 | 3.5 | 0.4 | 20 | 1.4 | – | – | – | – | – | – | – | –
10 | Cc1cc(N)nc(C[C@H]2CNC[C@H]2OCCNC(=O)Cc2cccc(F)c2)c1.Cl.Cl (racemic) [Compound P-80, (±)-N-{2-{cis-4-[(6-amino-4-methylpyridin-2-yl)methyl]pyrrolidin-3-yloxy}ethyl}-2-(3-fluorophenyl)acetamide dihydrochloride] | 17 | 3.8 | 5 | 85 | 19 | – | – | – | – | – | – | – | –
11 | Cc1cc(N)nc(C[C@H]2CNC[C@@H]2OCCN)c1.Cl.Cl.Cl (racemic) [Compound P-81] | 0.3 | 1.7 | 5 | 1.5 | 8.5 | – | – | – | – | – | – | – | –
12 | Cl.Cl.Cl.Cl.Nc1nc(CC2CNCC2NCCNCc2ccc(Cl)cc2)cs1 (racemic) [Compound P-82] | 1.8 | 2 | 1.7 | 3 | 3.4 | – | – | – | – | – | – | – | –
13 | Nc1cccc(CC2CNCC2NC2CCN(Cc3ccccc3)C2)n1 (centres unmarked) [Compound P-36] | – | – | – | – | – | 32.20 | 66.39 | 3.34 | 29 | 108 | 740 | 222 | 489
14 | Nc1cccc(CC2CNCC2NC2CCN(Cc3ccccc3)C2)n1 (centres unmarked) [Compound P-37] | – | – | – | – | – | 2.42 | 3.05 | 75.2 | 654 | 182 | 1250 | 229 | 506
15 | Nc1cccc(CC2CNCC2NC2CCN(Cc3ccccc3)C2)n1 (centres unmarked) [Compound P-38] | – | – | – | – | – | 66.19 | 155.05 | 2.74 | 23.8 | 181 | 1250 | 425 | 937
16 | Nc1cccc(CC2CNCC2NC2CCN(Cc3ccccc3)C2)n1 (centres unmarked) [Compound P-39] | – | – | – | – | – | 4.10 | 14.38 | 22.6 | 196 | 92.8 | 638 | 325 | 716
